# Results as given in patent US20250333418A1, “PURINE COMPOUNDS, COMPOSITIONS COMPRISING THEM AND USES THEREOF” (Novo Nordisk A/S, priority 2022, published 2025).
# Columns and labels:
# [1] = molecular target: T1, human CB1 receptor (Homo sapiens, UniProt P21554); experiment: bioSensAll β-arrestin2 plasma membrane translocation (+GRK2) BRET biosensor assay in HEK293 cells transfected with hCB1; test compound added before EC75-80 of agonist CP55,940 (100 nM); format: cell-based; conditions: βArrestin2 (+GRK2) BRET biosensor, vs CP55,940 100 nM (EC75-80), read-out: CB1 wt βarr2 IC50
# T1 construct: expressed in transfected cells; host or cells: HEK293
# Method in brief: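 Antagonist mode: compound at 12 concentrations up to 600 nM, then 100 nM CP55,940 3–5 min later, on hCB1-transfected HEK293 cells carrying the β-arrestin2 plasma-membrane biosensor plus GRK2. After overnight 37 °C incubation, 515/400 nm BRET ratio measured with 2 µM methoxy e-CTZ and standardized against positive/negative controls.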
# [2] = molecular target: T1, human CB1 receptor; experiment: bioSensAll GAPL-Gi2 BRET biosensor assay in HEK293 cells transfected with hCB1; test compound added before EC75-80 of agonist CP55,940 (0.1 nM); format: cell-based; conditions: vs CP55,940 0.1 nM (EC75-80), read-out: CB1 wt Gi2 IC50
# Method in brief: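 Test compounds at 12 doses up to 600 nM preceded a 0.1 nM CP55,940 challenge in hCB1/GAPL-Gi2 HEK293 cells. After overnight 37° C incubation, methoxy e-coelenterazine (2 µM final) was added and the 515/400 nm BRET ratio normalized to positive and negative controls.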
# T1 sequence (P21554 whole entry): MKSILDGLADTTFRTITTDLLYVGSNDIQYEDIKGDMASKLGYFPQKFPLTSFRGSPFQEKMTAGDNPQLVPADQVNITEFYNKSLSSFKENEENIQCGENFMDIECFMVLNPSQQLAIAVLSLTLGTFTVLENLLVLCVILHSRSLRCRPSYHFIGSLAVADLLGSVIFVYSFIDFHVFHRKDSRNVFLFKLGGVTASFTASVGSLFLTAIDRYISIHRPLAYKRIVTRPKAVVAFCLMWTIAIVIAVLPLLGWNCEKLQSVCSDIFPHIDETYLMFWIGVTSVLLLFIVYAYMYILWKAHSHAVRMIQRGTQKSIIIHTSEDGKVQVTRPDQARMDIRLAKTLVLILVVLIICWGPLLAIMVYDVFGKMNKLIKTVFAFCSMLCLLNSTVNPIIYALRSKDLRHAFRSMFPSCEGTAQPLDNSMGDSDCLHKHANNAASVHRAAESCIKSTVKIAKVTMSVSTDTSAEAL
compound,measurement,setting,value
"CN(CCO)c1nc(N2CCC(C)(C(N)=O)CC2)c2nc(-c3ccccn3)n(-c3ccc(Cl)cc3)c2n1 [Compound 63, 1-[9-(4-chlorophenyl)-2-[2-hydroxyethyl(methyl)amino]-8-(2-pyridyl)purin-6-yl]-4-methyl-piperidine-4-carboxamide]",IC50,[1],65.1 nM
same,IC50,[2],9.9 nM
"C[C@@H](O)COc1nc(N2CCC(C)(C(N)=O)CC2)c2nc(-c3ccccc3Cl)n(-c3ccc(Cl)cc3)c2n1 [Compound 79, 1-[8-(2-chlorophenyl)-9-(4-chlorophenyl)-2-[(2R)-2-hydroxypropoxy]purin-6-yl]-4-methyl-piperidine-4-carboxamide]",IC50,[1],4.37 nM
same,IC50,[2],0.868 nM
"CC1(C(N)=O)CCN(c2nc(S(C)(=O)=O)nc3c2nc(-c2ccccc2Cl)n3-c2ccc(Cl)cc2)CC1 [Compound 68, 1-[8-(2-chlorophenyl)-9-(4-chlorophenyl)-2-methylsulfonyl-purin-6-yl]-4-methyl-piperidine-4-carboxamide]",IC50,[1],10.7 nM
same,IC50,[2],1.69 nM
O=S1(=O)CCC(Nc2nc(N3CCC[C@H]3CO)nc3c2nc(-c2ccccc2Cl)n3-c2ccc(Cl)cc2)CC1 [Compound 166],IC50,[1],1.4 nM
same,IC50,[2],0.308 nM
CN1CCN(c2nc(OCC(C)(C)O)nc3c2nc(-c2ccccc2Cl)n3-c2ccc(Cl)cc2)CC1 [Compound 227],IC50,[1],11.7 nM
same,IC50,[2],4.78 nM
"O=S1(=O)CCN(c2nc(N3CCC(C(F)(F)F)CC3)c3nc(-c4ccccc4Cl)n(-c4ccc(Cl)cc4)c3n2)CC1 [Compound 32, 4-[8-(2-chlorophenyl)-9-(4-chlorophenyl)-6-[4-(trifluoromethyl)-1-piperidyl]purin-2-yl]-1,4-thiazinane 1,1-dioxide]",IC50,[1],3.02 nM
same,IC50,[2],0.509 nM
CN(CCO)c1nc(NC2CN(C(=O)C(F)(F)F)C2)c2nc(-c3ccccc3Cl)n(-c3ccc(Cl)cc3)c2n1 [Compound 179],IC50,[1],1.92 nM
same,IC50,[2],0.244 nM
CC(C)Oc1nc(N(C)CCO)nc2c1nc(-c1ccccc1Cl)n2-c1ccc(Cl)cc1 [Compound 189],IC50,[1],1.35 nM
same,IC50,[2],0.419 nM
CN(CCO)c1nc(N2CCC3(CCOC3)CC2)c2nc(-c3ccccc3Cl)n(-c3ccc(Cl)cc3)c2n1 [Compound 191],IC50,[1],0.626 nM
same,IC50,[2],0.418 nM
"CO[C@@H]1CCN(c2nc(N3CCC(C)(C(N)=O)CC3)c3nc(-c4ccccc4Cl)n(-c4ccc(Cl)cc4)c3n2)C1 [Compound 91, 1-[8-(2-chlorophenyl)-9-(4-chlorophenyl)-2-[(3R)-3-methoxypyrrolidin-1-yl]purin-6-yl]-4-methyl-piperidine-4-carboxamide]",IC50,[1],2.56 nM
same,IC50,[2],0.801 nM
CC(C)(O)COc1nc(-c2ccc(C(F)(F)F)nc2)c2nc(-c3ccccc3Cl)n(-c3ccc(Cl)cc3)c2n1 [Compound 123],IC50,[1],2.04 nM
same,IC50,[2],0.876 nM
"CN(CCO)c1nc(N2CCC(C)(C(N)=O)CC2)c2nc(-c3ccccc3Cl)n(-c3ccc(Cl)cc3)c2n1 [Compound 158, 1-[8-(2-chlorophenyl)-9-(4-chlorophenyl)-2-((2-hydroxyethyl)(methyl)amino)-purin-6-yl]-4-methyl-piperidine-4-carboxamide]",IC50,[1],0.931 nM
same,IC50,[2],0.555 nM
COC(=O)N1CCN(c2nc(N(C)CCO)nc3c2nc(-c2ccccc2Cl)n3-c2ccc(Cl)cc2)CC1 [Compound 173],IC50,[1],1.51 nM
same,IC50,[2],0.419 nM
"OCCCOc1nc(N2CCC(C(F)(F)F)CC2)c2nc(-c3ccccc3Cl)n(-c3ccc(Cl)cc3)c2n1 [Compound 23, 3-[8-(2-chlorophenyl)-9-(4-chlorophenyl)-6-[4-(trifluoromethyl)-1-piperidyl]purin-2-yl]oxypropan-1-ol]",IC50,[1],4.36 nM
same,IC50,[2],0.846 nM
CN(CCO)c1nc(N2CCO[C@H](CO)C2)c2nc(-c3ccccc3Cl)n(-c3ccc(Cl)cc3)c2n1 [Compound 170],IC50,[1],3.49 nM
same,IC50,[2],0.597 nM
"CN(CCO)c1nc(N2CCC(C)(C(N)=O)CC2)c2nc(-c3ccc(C#N)cn3)n(-c3ccc(Cl)cc3)c2n1 [Compound 64, 1-[9-(4-chlorophenyl)-8-(5-cyano-2-pyridyl)-2-[2-hydroxyethyl(methyl)amino]purin-6-yl]-4-methyl-piperidine-4-carboxamide]",IC50,[1],27.9 nM
same,IC50,[2],2.45 nM
CN(CCO)c1nc(N2CC(C)(C#N)C2)c2nc(-c3ccccc3Cl)n(-c3ccc(Cl)cc3)c2n1 [Compound 75],IC50,[1],0.834 nM
same,IC50,[2],0.399 nM
"COCCOc1nc(N2CCC(C(F)(F)F)CC2)c2nc(-c3ccccc3Cl)n(-c3ccc(Cl)cc3)c2n1 [Compound 27, 8-(2-chlorophenyl)-9-(4-chlorophenyl)-2-(2-methoxyethoxy)-6-[4-(trifluoromethyl)-1-piperidyl]purine]",IC50,[1],10.2 nM
same,IC50,[2],1.5 nM
CC1(C(N)=O)CCN(c2nc(-c3cc[nH]n3)nc3c2nc(-c2ccccc2Cl)n3-c2ccc(Cl)cc2)CC1 [Compound 44],IC50,[1],10 nM
same,IC50,[2],2.1 nM
"CCOC1(C(N)=O)CCCN(c2nc(OCC(C)(C)O)nc3c2nc(-c2ccccc2Cl)n3-c2ccc(Cl)cc2)C1 (single isomer, unassigned) [Compound 216]",IC50,[1],8.61 nM
same,IC50,[2],1.77 nM
COC1(C(N)=O)CCN(c2nc(OCC(C)(C)O)nc3c2nc(-c2ccccc2Cl)n3-c2ccc(Cl)cc2)CC1 [Compound 213],IC50,[1],7.84 nM
same,IC50,[2],1.85 nM
NC(=O)C1CCN(c2nc(N3CCC[C@H]3CO)nc3c2nc(-c2ccccc2Cl)n3-c2ccc(Cl)cc2)CC1 [Compound 154],IC50,[1],7.28 nM
same,IC50,[2],0.813 nM
"CC1(C(N)=O)CCN(c2nc(-n3cnc(CCO)c3)nc3c2nc(-c2ccccc2Cl)n3-c2ccc(Cl)cc2)CC1 [Compound 47, 1-[8-(2-chlorophenyl)-9-(4-chlorophenyl)-2-[4-(2-hydroxyethyl)imidazol-1-yl]purin-6-yl]-4-methyl-piperidine-4-carboxamide]",IC50,[1],6.65 nM
same,IC50,[2],1.87 nM
CCN1CCN(c2nc(OCC(C)(C)O)nc3c2nc(-c2ccccc2Cl)n3-c2ccc(Cl)cc2)CC1 [Compound 240],IC50,[1],12.2 nM
same,IC50,[2],5.79 nM
CN(CC(C)(C)O)c1nc(N2CC(C(N)=O)C2)c2nc(-c3ccccc3Cl)n(-c3ccc(Cl)cc3)c2n1 [Compound 128],IC50,[1],39.5 nM
same,IC50,[2],9.52 nM
CC(C)(O)COc1nc(N2CCNCC(F)(F)C2)c2nc(-c3ccccc3Cl)n(-c3ccc(Cl)cc3)c2n1 [Compound 221],IC50,[1],30.6 nM
same,IC50,[2],4.04 nM
CC(C)(O)COc1nc(NCC(N)=O)c2nc(-c3ccccc3Cl)n(-c3ccc(Cl)cc3)c2n1 [Compound 100],IC50,[1],> 5000 nM
same,IC50,[2],> 5000 nM
CN1CCN(c2nc(N(C)CCO)nc3c2nc(-c2ccccc2Cl)n3-c2ccc(Cl)cc2)CC1 [Compound 168],IC50,[1],12 nM
same,IC50,[2],1.93 nM
CC(C)OC1(C(N)=O)CCN(c2nc(OCC(C)(C)O)nc3c2nc(-c2ccc(C#N)nc2)n3-c2ccc(Cl)cc2)CC1 [Compound 135],IC50,[1],11.7 nM
same,IC50,[2],2.3 nM
CN(CCO)c1nc(N2CCC3(CC2)NC(=O)NC3=O)c2nc(-c3ccccc3Cl)n(-c3ccc(Cl)cc3)c2n1 [Compound 190],IC50,[1],23.7 nM
same,IC50,[2],2.66 nM
CCNC1(C(N)=O)CCN(c2nc(N)nc3c2nc(-c2ccccc2Cl)n3-c2ccc(Cl)cc2)CC1 [Compound 149],IC50,[1],> 5000 nM
same,IC50,[2],8.93 nM
"C[C@@H](O)CN(C)c1nc(N2CCC(C)(C(N)=O)CC2)c2nc(-c3ccccc3Cl)n(-c3ccc(Cl)cc3)c2n1 [Compound 54, 1-[8-(2-chlorophenyl)-9-(4-chlorophenyl)-2-[[(2R)-2-hydroxypropyl]-methyl-amino]purin-6-yl]-4-methyl-piperidine-4-carboxamide]",IC50,[1],1.12 nM
same,IC50,[2],0.427 nM
NC(=O)C1CN(c2nc(N3CCC[C@H]3CO)nc3c2nc(-c2ccccc2Cl)n3-c2ccc(Cl)cc2)C1 [Compound 237],IC50,[1],1.93 nM
same,IC50,[2],0.61 nM
CN(CCO)c1nc(N2CCC(C(N)=O)CC2)c2nc(-c3ccccc3Cl)n(-c3ccc(Cl)cc3)c2n1 [Compound 155],IC50,[1],14.8 nM
same,IC50,[2],1.01 nM
"CC1(C(N)=O)CCN(c2nc(NCCO)nc3c2nc(-c2ccccc2Cl)n3-c2ccc(Cl)cc2)CC1 [Compound 56, 1-[8-(2-chlorophenyl)-9-(4-chlorophenyl)-2-(2-hydroxyethylamino)purin-6-yl]-4-methyl-piperidine-4-carboxamide]",IC50,[1],5.41 nM
same,IC50,[2],0.83 nM
"CC(=O)NCCOc1nc(N2CCC(C(F)(F)F)CC2)c2nc(-c3ccccc3Cl)n(-c3ccc(Cl)cc3)c2n1 [Compound 53, N-[2-[8-(2-chlorophenyl)-9-(4-chlorophenyl)-6-[4-(trifluoromethyl)-1-piperidyl]purin-2-yl]oxyethyl]acetamide]",IC50,[1],13.1 nM
same,IC50,[2],0.966 nM
CC(C)OC1(C(N)=O)CCN(c2nc(OCC(C)(C)O)nc3c2nc(-c2ccccc2Cl)n3-c2ccc(Cl)cc2)CC1 [Compound 215],IC50,[1],1.64 nM
same,IC50,[2],0.707 nM
"CC1(C(N)=O)CCN(c2nc(OC3CCCOC3)nc3c2nc(-c2ccccc2Cl)n3-c2ccc(Cl)cc2)CC1 (stereo not shown) [Compound 17, 1-[8-(2-chlorophenyl)-9-(4-chlorophenyl)-2-tetrahydropyran-3-yloxy-purin-6-yl]-4-methyl-piperidine-4-carboxamide]",IC50,[1],2.39 nM
same,IC50,[2],0.617 nM
